Reference: article PMC12257510, “Structure-Guided Design of a KMT9 Inhibitor Prodrug with Cellular Activity” (Journal of Medicinal Chemistry, 2025)

What was measured:
Assay type in all cases: cell-based
[1] = system: H4K12me1 levels in PC-3 M prostate tumor cells; assay: Western blot of cellular H4K12me1 levels; settings: PC-3 M cells, 10 μM, 3 days
Procedure: 7 Cellular activity of prodrug compound 8. (A) Levels of H4K12me1 in PC-3 M prostate tumor cells cultured in the presence of DMSO (−), 10 μM compound 8 or compound 8-N for 3 days were analyzed by Western blot using the indicated antibodies. Histone H4 was used as control. (B, C) Proliferation of Caco-2 cells treated with DMSO (Ctrl), compound 8, or compound 8-N were measured by Xcelligence. Data represent means ± s.d (n = 3). (D) Proliferation of HepG2 cells upon treatment of DMSO (Ctrl) and compound 8.
Experiments were performed as previously described. Histones used for Western blot analysis were extracted from cells as following: Cells were harvested, washed with PBS, resuspended in Triton Extraction Buffer (TEB; PBS, Triton ×100, 2 mM PMSF, 0.02% NaN3), stored 10 min on ice, centrifuged, and supernatant was discarded. After washing cells, a second time with TEB, pellets were resuspended in 0.2 N HCl and histones were acid-extracted overnight at 4 °C. Upon centrifugation for 10 min at 2000 rpm, supernatant was collected and protein concentration was determined. Three days before harvesting, cells were transfected with siRNA as indicated. The following antibodies were used: anti-KMT9α (#27630, lot 20062017, Schüle Lab), antihistone H4 (#ab10158, lot GR322677–1, Abcam), anti-H4K12me1 (#27429, lot 27062017, Schüle Lab).

[2] = system: SW480 cells; assay: Cell proliferation assay (X-Celligence), SW480; settings: Xcelligence, vs DMSO
Procedure: Cell proliferation was determined using the X-Celligence RTCA system (Roche). For real-time recording of SW480, Caco-2 cell proliferation, 5000 cells/well were seeded in 16 well E-plates (Roche). Cells were seeded in the presence of DMSO or compound 8/8-N or transfected with the indicated siRNAs in the presence of Dharmafect (Life Technologies) 24 h before seeding in E-plates. Cell indices were automatically recorded every 15 min. Relative velocities represent the change of the cell index over time. The sequences of the siRNAs (Stealth RNAi siRNAs; Life Technologies) used in the experiments have been previously described.

[3] = molecular target: T1, KMT9a (Homo sapiens, UniProt Q9Y5N5); assay: CETSA in Caco-2 cells, KMT9; parameters: of endogenous KMT9 upon treatment with; endogenous in cells; host or cells: Caco-2
T1 sequence (Q9Y5N5 1-214): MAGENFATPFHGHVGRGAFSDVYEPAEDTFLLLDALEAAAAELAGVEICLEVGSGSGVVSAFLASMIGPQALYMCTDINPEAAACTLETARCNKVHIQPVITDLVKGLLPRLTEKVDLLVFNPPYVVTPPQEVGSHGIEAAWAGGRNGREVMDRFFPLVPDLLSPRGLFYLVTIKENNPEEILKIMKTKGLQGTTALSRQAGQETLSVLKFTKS
T1 sequence (Q9UI30 1-125 partner): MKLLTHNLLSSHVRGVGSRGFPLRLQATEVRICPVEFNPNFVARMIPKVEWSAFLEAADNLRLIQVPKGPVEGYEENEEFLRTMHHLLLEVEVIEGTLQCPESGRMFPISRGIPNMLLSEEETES
Procedure: (§1) For whole cell CETSA, the cells were incubated with 10/15 μM of compound 7b/8/8-N for 18 h. Then, cells were washed with cell culture medium, detached from the surface using trypsin, washed with PBS and the number of cells was determined. Cell concentration was adjusted to 3.6 × 10^7 cells/mL using in PBS with Complete (w/o EDTA, Roche) protease inhibitor. Then, cells were frozen in liquid nitrogen and thawed at 25 °C three times, before being divided in 16 aliquots. Each aliquot was heated to a defined temperature between 40 and 70 °C in a PCR cycler (16 well gradient, 55 °C ± 15). After 3 min incubation, aliquots were snap frozen in liquid nitrogen and thawed at 25 °C. Cell lysates were then centrifuged at 20,000 × g , 4 °C for 20 min. Supernatant were mixed with 5× loading buffer, heated to 70 °C for 5 min and analyzed by Western blotting essentially as previously described. For the CETSA performed with cell lysates, cells were directly harvested and lysed as described above. […]
(§2) Figure S4. […] Representative Western blots (A) and quantification (B) showing no obvious shifting melting temperatures (ΔT m) of endogenous KMT5A upon treatment with compound 7b compared to DMSO. […]
(§3) Representative Western blots (C) and quantification (D) showing no shifting melting temperatures (ΔT m) of endogenous KMT5A upon treatment with compound 8 compared to DMSO. […]

[4] = molecular target: T2, KMT5A (Homo sapiens, UniProt Q9NQR1); assay: CETSA in intact SW480 cells, KMT5A; parameters: endogenous in cells; host or cells: SW480
T2 sequence (Q9NQR1 1-393): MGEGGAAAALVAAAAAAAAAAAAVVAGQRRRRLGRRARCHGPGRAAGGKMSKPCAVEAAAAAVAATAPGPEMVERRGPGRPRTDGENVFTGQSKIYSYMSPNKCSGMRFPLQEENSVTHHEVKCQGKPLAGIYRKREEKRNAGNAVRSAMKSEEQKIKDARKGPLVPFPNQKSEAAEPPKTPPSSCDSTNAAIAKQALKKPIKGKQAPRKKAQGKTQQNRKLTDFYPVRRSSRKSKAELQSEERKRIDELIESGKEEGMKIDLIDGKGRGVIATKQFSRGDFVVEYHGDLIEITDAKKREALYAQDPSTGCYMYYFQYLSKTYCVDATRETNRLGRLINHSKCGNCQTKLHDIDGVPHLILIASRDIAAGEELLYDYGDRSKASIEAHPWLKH
Procedure: as §1, §2, §3

[5] = molecular target: T3, endogenous KMT9a (Homo sapiens, UniProt Q9Y5N5); assay: CETSA in intact SW480 cells, KMT9; settings: 18 h, vs DMSO
T3 construct: increased thermal stability of endogenous KMT9 in SW480 cell lysates; endogenous in cells; host or cells: SW480
T3 sequence (Q9Y5N5 1-214): T1 sequence (Q9Y5N5 1-214)
T3 sequence (Q9UI30 1-125 partner): T1 sequence (Q9UI30 1-125 partner)
Procedure: For whole cell CETSA, the cells were incubated with 10/15 μM of compound 7b/8/8-N for 18 h. Then, cells were washed with cell culture medium, detached from the surface using trypsin, washed with PBS and the number of cells was determined. Cell concentration was adjusted to 3.6 × 10^7 cells/mL using in PBS with Complete (w/o EDTA, Roche) protease inhibitor. Then, cells were frozen in liquid nitrogen and thawed at 25 °C three times, before being divided in 16 aliquots. Each aliquot was heated to a defined temperature between 40 and 70 °C in a PCR cycler (16 well gradient, 55 °C ± 15). After 3 min incubation, aliquots were snap frozen in liquid nitrogen and thawed at 25 °C. Cell lysates were then centrifuged at 20,000 × g , 4 °C for 20 min. Supernatant were mixed with 5× loading buffer, heated to 70 °C for 5 min and analyzed by Western blotting essentially as previously described. For the CETSA performed with cell lysates, cells were directly harvested and lysed as described above. The lysates were then split and incubated either with DMSO or 10 μM compound 7b for 2 h. Then, lysates were aliquoted again into 16 samples each and treated as described for the whole cell CETSA.

Which “Levels of H4K12me1” value [1] does the source give for `CCOC(=O)[C@@H](N)CCN(CCCNCCc1ccc(Oc2ccc(Cl)cc2)c(F)c1)C[C@H]1C[C@@H](n2ccc3c(NC)ncnc32)[C@H](O)[C@@H]1O` [compound 8, Ethyl (S)-2-amino-4-((3-((4-(4-chlorophenoxy)-3-fluorophenethyl)amino)propyl) (((1R,2R,3S,4R)-2,3-dihydroxy-4-(4-(methylamino)-7H-pyrrolo[2,3-d]pyrimidin-7-yl)cyclopentyl)methyl)amino)butanoate] here?
Its value is “reduced H4K12me1 levels”.

What about the “Proliferation of SW480 cells” value [2] of the same compound?
The value was “also found in SW480 tumor cell lines”.

What about the ΔTm at 15 µM [3] of the same compound?
Its ΔTm at 15 µM is 6.1 °C.

And the ΔTm at 10 µM [4]?
Its ΔTm at 10 µM is -0.6 °C.

What about the ΔTm at 10 µM [5] of the same compound?
The ΔTm at 10 µM was 5 °C.
